Entries after “also recorded” stand apart in the source; their conditions may differ.
Columns and labels:
Format in all cases: in vivo
zebrafish embryos = experiment: Zebrafish motor axon phenotype (znp-1 staining) after morpholino or mRNA injection; conditions: 34 hpf zebrafish, smn MO 4 ng, ncald MO 2 ng
Procedure: Zebrafish were dechorionated and fixed in 4% PFA-PBS 34 hours after fertilization. Collagenase digest was performed to permeabilize the larvae for the following antibody staining. In brief, fish were stained at 4° C. over night in 500 μl PBS-T/10% FCS containing znp-1 antibody (1:300, Hybridoma Bank). After all-day washing in PBS-T/1% FCS/1% BSA (changing solution every hour) fish were stained in PBS-T/1% DMSO/10% FCS containing secondary donkey anti-mouse antibody labelled with Alexafluor 488 (1:200, Invitrogen). After repeated washing, fish were stored in 80% glycerol/20% PBS in the dark at 4° C. Microscopic analysis of fish was performed in 80% glycerol on micro slides using a fluorescence microscope (Axioskop 2, Zeiss). The length of each of the first ten motoraxons behind the yolk was analyzed and evaluated. For NSC34 cell staining cells were fixed in 4% PFA for 15 min at RT. Following fixation, cells were rinsed 1× in PBS for 5 min. After another washing step with PBS, cells were permeabilized in 0.2% Triton X in PBS for 5 min. […]
The used antisense Morpholino (MO) was designed against the translational start codon of the ncald gene (Gene Tools, LLC): 5′-[…]-3′ (SEQ ID NO: 2). […] Six hours after injection embryos were sorted according to homogeneity of the rhodamine fluorescence signal reflecting the equal distribution of the injected MO solution. […]

zebrafish larvae [1] = experiment: TEM analysis of synaptic cleft width of zebrafish NMJs
Procedure: Whole zebrafish larvae were fixed in 4% PFA for 30 min and postfixed in 0.6% glutaraldehyde for 24 h. Larvae were embedded in Epoxy resin (Plano) and cross sections were performed according to previously described and adapted TEM protocol (Voigt et al. 2010). Thickness of semi-thin and ultra-thin sections was 0.5 μm and 0.1 μm, respectively. Image acquisition was performed as described in the supplement. Image acquisition was performed using the TEM CM10 (Philips) microscope with the Orius SC200W 1 Gatan camera and Digital Micrograph software.
48 hpf zebrafish larvae were fixed in 4% PFA for 30 min and postfixed in 0.6% glutaraldehyde for another day. Gold-labeled secondary antibodies were used for co-localization studies of Ncald and Clathrin. Image acquisition of ultra-thin sections with a thickness of […] was performed using the TEM CM10 (Philips) microscope with the Orius SC200W 1 Gatan camera and the Digital Micrograph software.
48 hpf zebrafish larvae were fixed in 4% PFA for […] and postfixed in 0.6% glutaraldehyde for another day. Samples were then prepared and embedded in resin as previously described. The thickness of semi-thin and ultra-thin sections was […], respectively. For immunogold stainings, in brie pre-stained sections were blocked and afterwards incubated with primary antibodies (anti-clathrin, 1:50, anti-NCALD, 1:50) and washed in PBS; after that sections were stained with gold-labelled secondary antibodies (donkey anti-mouse 6 nm gold, 1:100; goat anti-rabbit 20 nm gold 1:100; Abeam). Image acquisition was performed using the TEM CM10 (Philips) microscope with the Orius SC200W 1 Gatan camera and the Digital Micrograph software.

zebrafish larvae [2] = experiment: High-speed tracking of zebrafish swimming velocity after electric stimulation; conditions: 48 hpf zebrafish, n=30 per treatment
Procedure: To analyse the swimming behaviour of zebrafish morphants, high-speed imaging was performed. In brief 30 zebrafish larvae, all treated with each respective morpholino, were placed in a 10 cm petri dish containing fish embryo medium. To trigger a swimming response, fish were stimulated with an electrical impulse (60 V; delay: 60 ms, duration: 4 ms, frequency: 6 pps (SD9 Stimulator)). Swimming behaviour was recorded with 120 frames per second using a high-speed camera (FC-100, Casio). Quality of the high-speed video was optimized for analysis (Adobe) and afterwards swimming velocity and distance was analysed using LoliTrack software (Loligo Systems).

[3] = MO-injected 48 hpf fish, N=3, n=5 (FIG. 17E)

Substance: smn MO: previously published morpholino knocking down zebrafish smn, CGACATCTTCTGCACCATTGGC (all phosphorodiamidate morpholino (PMO))
- Motor axon phenotype (truncation, branching) (zebrafish embryos): high numbers of severely truncated motor neuron axons; also recorded: massive motor axon-specific outgrowth defects
- Width of synaptic cleft / NMJ maturation (zebrafish larvae [1]; Example 1, FIG. 8, 34 hpf zebrafish larvae): significant reduction of the width of the synaptic cleft
- Width of synaptic cleft, mean (zebrafish larvae [1]; [3]): 30.26 nm
- Width of synaptic cleft, median (zebrafish larvae [1]; [3]): 23.51 nm
- Swimming velocity after electrical stimulation (zebrafish larvae [2]): significantly reduced velocity
